Type in all cases: cell-based
Common to all, as to conditions: Table A; BaF3 cells, 3 days

The target in one experiment is T1, HER2 YVMA (Homo sapiens, UniProt P04626, INS775YVMA).
T1 construct: expressed in transfected cells; host or cells: BaF3 (murine pro-B) cells
In words: BaF3 cell proliferation assay (CellTiterGlo), HER2 YVMA.

The next experiment deals with T2, EGFR wt (Homo sapiens, UniProt P00533).
T2 construct: expressed in transfected cells; host or cells: BaF3 (murine pro-B) cells, retroviral transduction with pMXs-IRES-Blasticidin
T2 sequence (P00533 25-1210): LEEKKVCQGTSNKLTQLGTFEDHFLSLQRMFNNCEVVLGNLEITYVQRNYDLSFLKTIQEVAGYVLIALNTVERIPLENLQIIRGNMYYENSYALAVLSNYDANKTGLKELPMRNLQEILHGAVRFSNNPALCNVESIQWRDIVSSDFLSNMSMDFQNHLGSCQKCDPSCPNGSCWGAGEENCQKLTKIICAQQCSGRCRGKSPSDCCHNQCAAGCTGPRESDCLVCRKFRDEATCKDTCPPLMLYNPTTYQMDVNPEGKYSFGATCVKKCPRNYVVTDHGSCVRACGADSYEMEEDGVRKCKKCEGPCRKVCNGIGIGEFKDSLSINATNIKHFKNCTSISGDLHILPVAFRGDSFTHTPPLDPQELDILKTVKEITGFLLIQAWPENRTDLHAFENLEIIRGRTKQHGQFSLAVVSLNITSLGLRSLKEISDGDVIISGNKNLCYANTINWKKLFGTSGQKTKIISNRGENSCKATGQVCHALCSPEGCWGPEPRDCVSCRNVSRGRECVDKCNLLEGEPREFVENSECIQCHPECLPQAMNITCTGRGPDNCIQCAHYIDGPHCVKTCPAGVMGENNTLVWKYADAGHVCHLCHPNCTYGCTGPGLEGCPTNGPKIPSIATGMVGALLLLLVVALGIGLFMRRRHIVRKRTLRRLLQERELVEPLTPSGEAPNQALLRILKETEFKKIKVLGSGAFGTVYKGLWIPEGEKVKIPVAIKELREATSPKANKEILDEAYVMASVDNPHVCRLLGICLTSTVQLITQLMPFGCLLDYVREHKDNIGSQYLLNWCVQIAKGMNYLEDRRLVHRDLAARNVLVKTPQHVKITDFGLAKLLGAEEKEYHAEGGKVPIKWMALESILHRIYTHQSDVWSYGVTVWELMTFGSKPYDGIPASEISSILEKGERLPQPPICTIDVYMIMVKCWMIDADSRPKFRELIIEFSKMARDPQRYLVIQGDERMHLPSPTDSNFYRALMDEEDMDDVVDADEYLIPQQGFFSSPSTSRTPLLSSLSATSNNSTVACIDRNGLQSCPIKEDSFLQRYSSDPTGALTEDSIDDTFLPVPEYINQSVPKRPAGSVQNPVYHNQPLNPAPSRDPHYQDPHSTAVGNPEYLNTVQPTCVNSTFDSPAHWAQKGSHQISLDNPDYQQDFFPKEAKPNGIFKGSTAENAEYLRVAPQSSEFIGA
In words: BaF3 cell proliferation assay (CellTiterGlo), EGFR wt. In outline: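 BaF3 cells engineered by retroviral transduction to express EGFR and selected for blasticidin resistance and IL-3 independent growth were suspended at 1.3E5 c/ml in RPMI with 10% heat inactivated FBS, 2% L-glutamine and 1% Pen/Strep. They were plated in triplicate in 96 well plates and exposed to vehicle or varying drug concentrations for 3 days. Viability was quantified by CellTiterGlo ATP luminescence, normalized to vehicle, and curves fitted in PRISM.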

The target in another experiment is T3, EGFR V3 (Homo sapiens, UniProt P00533, DELINS30-297G).
T3 construct: expressed in transfected cells; host or cells: BaF3 (murine pro-B) cells, retroviral transduction with pMXs-IRES-Blasticidin
T3 sequence (P00533 with tags, fused parts or gaps DELINS30-297G): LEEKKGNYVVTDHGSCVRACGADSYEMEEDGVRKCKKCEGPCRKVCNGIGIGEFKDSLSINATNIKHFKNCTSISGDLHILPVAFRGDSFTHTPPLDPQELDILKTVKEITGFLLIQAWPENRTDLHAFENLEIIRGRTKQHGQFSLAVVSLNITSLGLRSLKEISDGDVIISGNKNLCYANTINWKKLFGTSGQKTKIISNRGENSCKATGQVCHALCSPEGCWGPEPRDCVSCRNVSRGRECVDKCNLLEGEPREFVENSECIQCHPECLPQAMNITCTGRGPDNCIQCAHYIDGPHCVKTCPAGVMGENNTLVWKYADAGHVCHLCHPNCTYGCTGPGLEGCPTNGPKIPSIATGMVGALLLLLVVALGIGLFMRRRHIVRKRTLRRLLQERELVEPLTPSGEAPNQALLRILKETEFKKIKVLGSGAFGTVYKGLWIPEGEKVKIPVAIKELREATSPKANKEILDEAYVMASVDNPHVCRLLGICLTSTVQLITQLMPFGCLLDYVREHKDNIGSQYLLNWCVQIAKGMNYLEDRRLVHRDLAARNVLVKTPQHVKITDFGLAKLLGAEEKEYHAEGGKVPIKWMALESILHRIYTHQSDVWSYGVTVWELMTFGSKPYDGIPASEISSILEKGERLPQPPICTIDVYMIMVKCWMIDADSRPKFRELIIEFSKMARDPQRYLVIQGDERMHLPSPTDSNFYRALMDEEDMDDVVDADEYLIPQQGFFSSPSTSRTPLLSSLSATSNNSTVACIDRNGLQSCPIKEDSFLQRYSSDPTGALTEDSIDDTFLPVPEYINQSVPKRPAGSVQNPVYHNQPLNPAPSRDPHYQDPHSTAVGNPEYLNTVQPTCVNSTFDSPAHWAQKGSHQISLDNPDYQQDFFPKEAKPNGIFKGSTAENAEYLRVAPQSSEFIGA
In words: BaF3 cell proliferation assay (CellTiterGlo), EGFR V3. The method, boiled down:
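BaF3 cells made IL-3-independent by retroviral expression of each EGFR or HER2 mutant were treated in triplicate with compound for 72 h. Viability was read by CellTiterGlo ATP luminescence and normalised to vehicle, and EC50 was fitted from dose-response curves.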

A further experiment has as its target T4, HER2 S310F (Homo sapiens, UniProt P04626, S310F).
T4 construct: expressed in transfected cells; host or cells: BaF3 (murine pro-B) cells
In words: BaF3 cell proliferation assay (CellTiterGlo), HER2 S310F.

T1 sequence (P04626 with tags, fused parts or gaps INS775YVMA): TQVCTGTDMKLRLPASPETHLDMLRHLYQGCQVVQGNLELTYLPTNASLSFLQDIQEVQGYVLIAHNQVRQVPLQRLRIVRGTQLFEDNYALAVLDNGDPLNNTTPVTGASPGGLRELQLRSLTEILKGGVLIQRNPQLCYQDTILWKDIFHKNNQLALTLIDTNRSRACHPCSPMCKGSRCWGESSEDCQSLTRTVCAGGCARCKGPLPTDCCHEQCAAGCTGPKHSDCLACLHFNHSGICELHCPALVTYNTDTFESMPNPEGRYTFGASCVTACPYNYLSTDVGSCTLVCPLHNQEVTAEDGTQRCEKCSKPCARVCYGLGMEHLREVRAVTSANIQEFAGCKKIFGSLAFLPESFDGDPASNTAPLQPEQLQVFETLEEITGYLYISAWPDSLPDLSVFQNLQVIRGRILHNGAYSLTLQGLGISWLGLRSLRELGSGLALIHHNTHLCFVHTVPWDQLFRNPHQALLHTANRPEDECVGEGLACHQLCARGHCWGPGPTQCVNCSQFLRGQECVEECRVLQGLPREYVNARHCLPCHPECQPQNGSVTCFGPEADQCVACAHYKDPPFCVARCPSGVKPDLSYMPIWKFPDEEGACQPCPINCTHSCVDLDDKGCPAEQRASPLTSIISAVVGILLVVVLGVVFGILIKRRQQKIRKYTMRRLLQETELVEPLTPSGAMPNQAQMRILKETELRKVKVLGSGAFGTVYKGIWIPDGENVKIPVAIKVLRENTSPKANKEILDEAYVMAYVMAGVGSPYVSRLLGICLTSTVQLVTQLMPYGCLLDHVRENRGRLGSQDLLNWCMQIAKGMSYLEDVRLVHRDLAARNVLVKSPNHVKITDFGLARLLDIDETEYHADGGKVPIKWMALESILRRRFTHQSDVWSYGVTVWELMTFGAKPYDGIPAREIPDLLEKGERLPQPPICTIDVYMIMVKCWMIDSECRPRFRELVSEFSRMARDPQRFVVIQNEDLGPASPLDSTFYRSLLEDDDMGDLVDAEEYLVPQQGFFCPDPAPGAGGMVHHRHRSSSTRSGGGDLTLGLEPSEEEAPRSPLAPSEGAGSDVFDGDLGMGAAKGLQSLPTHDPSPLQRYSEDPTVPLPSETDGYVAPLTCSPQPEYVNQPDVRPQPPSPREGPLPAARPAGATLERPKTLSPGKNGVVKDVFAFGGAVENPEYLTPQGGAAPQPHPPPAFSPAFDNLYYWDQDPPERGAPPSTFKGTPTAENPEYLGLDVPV
T4 sequence (P04626 23-1255 S310F): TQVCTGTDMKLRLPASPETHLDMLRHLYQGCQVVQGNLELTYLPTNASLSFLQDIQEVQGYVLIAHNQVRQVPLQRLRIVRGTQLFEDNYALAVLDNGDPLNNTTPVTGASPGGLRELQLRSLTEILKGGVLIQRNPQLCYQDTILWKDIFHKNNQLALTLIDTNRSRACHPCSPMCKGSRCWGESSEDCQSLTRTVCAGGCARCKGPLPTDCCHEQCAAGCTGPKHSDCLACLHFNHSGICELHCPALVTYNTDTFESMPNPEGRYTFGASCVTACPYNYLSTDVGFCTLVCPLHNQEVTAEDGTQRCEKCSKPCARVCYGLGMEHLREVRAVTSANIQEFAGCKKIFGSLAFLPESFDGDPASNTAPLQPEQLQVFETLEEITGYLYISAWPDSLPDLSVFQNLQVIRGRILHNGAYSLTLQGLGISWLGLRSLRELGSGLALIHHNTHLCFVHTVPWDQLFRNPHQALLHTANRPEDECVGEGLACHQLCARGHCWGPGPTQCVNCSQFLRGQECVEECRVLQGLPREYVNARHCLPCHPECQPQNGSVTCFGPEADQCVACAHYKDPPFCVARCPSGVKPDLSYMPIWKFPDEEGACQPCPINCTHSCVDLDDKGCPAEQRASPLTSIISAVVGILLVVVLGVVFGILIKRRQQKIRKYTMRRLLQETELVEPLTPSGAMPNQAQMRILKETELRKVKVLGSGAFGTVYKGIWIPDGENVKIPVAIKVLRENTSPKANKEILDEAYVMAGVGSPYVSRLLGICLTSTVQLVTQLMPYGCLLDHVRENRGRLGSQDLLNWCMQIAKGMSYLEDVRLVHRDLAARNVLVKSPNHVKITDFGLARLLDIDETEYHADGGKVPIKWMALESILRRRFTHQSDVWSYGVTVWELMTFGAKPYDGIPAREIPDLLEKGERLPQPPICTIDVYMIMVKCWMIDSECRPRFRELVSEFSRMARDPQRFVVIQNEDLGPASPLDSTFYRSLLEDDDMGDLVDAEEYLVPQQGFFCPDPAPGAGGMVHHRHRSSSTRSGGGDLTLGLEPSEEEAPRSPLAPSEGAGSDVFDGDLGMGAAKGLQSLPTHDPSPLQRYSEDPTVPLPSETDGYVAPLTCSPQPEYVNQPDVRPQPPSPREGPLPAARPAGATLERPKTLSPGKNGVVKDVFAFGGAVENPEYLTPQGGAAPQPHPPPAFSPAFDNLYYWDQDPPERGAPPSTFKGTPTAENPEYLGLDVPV

As to `C=CC(=O)Nc1cc2c(Nc3cccc(Cl)c3F)ncnc2cc1C#C[C@@]1(C)CCN(C2COC2)C1` [Compound 59, (R)—N-(4-((3-chloro-2-fluorophenyl)amino)-7-((3-methyl-1-(oxetan-3-yl)pyrrolidin-3-yl)ethynyl)quinazolin-6-yl)acrylamide], the IC50 was greater than 500 nM on HER2 YVMA, 100 to 500 nM against EGFR wt, no more than 50 nM at EGFR V3 and 100 to 500 nM on HER2 S310F.

Turning to `C=CC(=O)Nc1cc2c(Nc3cccc(Cl)c3F)ncnc2cc1C#CC1(F)CCN(C)C1` (stereo not drawn) [Compound 60, N-(4-((3-chloro-2-fluorophenyl)amino)-7-((3-fluoro-1-methylpyrrolidin-3-yl)ethynyl)quinazolin-6-yl)acrylamide], the IC50 at HER2 YVMA is 100 to 500 nM; on EGFR wt, 100 to 500 nM; against EGFR V3, no more than 50 nM; against HER2 S310F, 50 to 100 nM.

`C=CC(=O)Nc1cc2c(Nc3ccc(OCc4cccc(F)c4)c(Cl)c3)ncnc2cc1C#CC1(C)CCOC1` (stereo not drawn) [Compound 61, N-(4-((3-chloro-4-((3-fluorobenzyl)oxy)-phenyl)amino)-7-((3-methyltetrahydrofuran-3-yl)ethynyl)quinazolin-6-yl)acrylamide]: the 50% inhibitory concentration (IC50) on HER2 YVMA is 100 to 500 nM; on EGFR wt, greater than 500 nM; on EGFR V3 it was 100 to 500 nM; at HER2 S310F, 50 to 100 nM.

`C=CC(=O)Nc1cc2c(Nc3cccc(Cl)c3F)ncnc2cc1C#CC1(C(F)(F)F)CCN(C)C1` (stereo not drawn) [Compound 62, N-(4-((3-chloro-2-fluorophenyl)amino)-7-((1-methyl-3-(trifluoromethyl)pyrrolidin-3-yl)ethynyl)quinazolin-6-yl)acrylamide]: the IC50 was greater than 500 nM against HER2 YVMA, greater than 500 nM against EGFR wt, 100 to 500 nM on EGFR V3 and 100 to 500 nM against HER2 S310F.

Consider `C=CC(=O)Nc1cc2c(Nc3ccc(Cl)c(Cl)c3F)ncnc2cc1C#CC1(C)CCOC1` (stereo not drawn) [Compound 63, N-(4-((3,4-dichloro-2-fluorophenyl)amino)-7-((3-methyltetrahydrofuran-3-yl)ethynyl)quinazolin-6-yl)acrylamide], for which the IC50 at HER2 YVMA is greater than 500 nM; against EGFR wt, 100 to 500 nM; on EGFR V3, no more than 50 nM; on HER2 S310F, 100 to 500 nM.

Consider `C=CC(=O)Nc1cc2c(Nc3cccc(Cl)c3F)ncnc2cc1C#CC12CC1CN(C1COC1)C2` (stereo not drawn) [Compound 64, N-(4-((3-chloro-2-fluorophenyl)amino)-7-((3-(oxetan-3-yl)-3-azabicyclo[3.1.0]hexan-1-yl)ethynyl)quinazolin-6-yl)acrylamide], for which the IC50 against HER2 YVMA is 100 to 500 nM; against EGFR wt it was 100 to 500 nM; at EGFR V3, no more than 50 nM; on HER2 S310F, 100 to 500 nM.

`C=CC(=O)Nc1cc2c(Nc3cccc(Cl)c3F)ncnc2cc1C#CC12CC1CN(C)C2` (stereo not drawn) [Compound 65, N-(4-((3-chloro-2-fluorophenyl)amino)-7-((3-methyl-3-azabicyclo[3.1.0]hexan-1-yl)ethynyl)quinazolin-6-yl)acrylamide]: the IC50 on HER2 YVMA was 100 to 500 nM; against EGFR wt, 100 to 500 nM; against EGFR V3 it was no more than 50 nM; at HER2 S310F, 50 to 100 nM.

Consider `C=CC(=O)Nc1cc2c(Nc3cccc(Cl)c3F)ncnc2cc1C#CC1(C)CCCN(C)C1` (stereo not drawn) [Compound 66, N-(4-((3-chloro-2-fluorophenyl)amino)-7-((1,3-dimethylpiperidin-3-yl)ethynyl)quinazolin-6-yl)acrylamide], for which the IC50 on HER2 YVMA was greater than 500 nM; against EGFR wt, greater than 500 nM; on EGFR V3 it was no more than 50 nM; against HER2 S310F it was 100 to 500 nM.

On to `C=CC(=O)Nc1cc2c(Nc3ccc(OCc4ccccn4)c(Cl)c3)ncnc2cc1C#CC1(C)CCCN(C)C1` (stereo not drawn) [Compound 67, N-(4-((3-chloro-4-(pyridin-2-ylmethoxy)phenyl)amino)-7-((1,3-dimethylpiperidin-3-yl)ethynyl)quinazolin-6-yl)acrylamide], for which the IC50 was 100 to 500 nM against HER2 YVMA, greater than 500 nM against EGFR wt, 50 to 100 nM at EGFR V3 and no more than 50 nM at HER2 S310F.
